Test results reported in the supplement of paper PMC10307832.

Assays:
Assay in all cases: relative viability (nuclei count vs DMSO), 5 days (fraction); higher = more cells survive
[1] = compound: CC(=O)Nc1cccc(-n2c(=O)n(C3CC3)c(=O)c3c(Nc4ccc(I)cc4F)n(C)c(=O)c(C)c32)c1 [Trametinib] + CC(=O)c1c(C)c2cnc(Nc3ccc(N4CCNCC4)cn3)nc2n(C2CCCC2)c1=O [Palbociclib] (partner 0.5 µM)
How it was run: (§1)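 Five library-drug doses in √10 steps were combined with a fixed anchor-drug dose, or a single drug was given alone, by pin tool to lung cancer cell lines in 1536-well plates the day after seeding. Nuclei were stained and counted after 5 days. Relative viability is the nuclei count in treated wells over that in vehicle wells, taken as the median of duplicate plates.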

[2] = compound: CN1C=C(C2=CC=CC=C21)/C=C\3/C4=C(C=CC=N4)NC3=O + CC(C)C[C@H](NC(=O)[C@H](Cc1ccccc1)NC(=O)c1cnccn1)B(O)O [Bortezomib] (partner 0.002 µM)
How it was run: as §1

[3] = compound: CC(=O)Nc1cccc(-n2c(=O)n(C3CC3)c(=O)c3c(Nc4ccc(I)cc4F)n(C)c(=O)c(C)c32)c1 [Trametinib] + CS(=O)(=O)CCNCc1ccc(-c2ccc3ncnc(Nc4ccc(OCc5cccc(F)c5)c(Cl)c4)c3c2)o1 [Lapatinib] (partner 2 µM)
How it was run: as §1

[4] = compound: CN1C=C(C2=CC=CC=C21)/C=C\3/C4=C(C=CC=N4)NC3=O + COc1cc2c(Oc3ccc(NC(=O)C4(C(=O)Nc5ccc(F)cc5)CC4)cc3F)ccnc2cc1OCCCN1CCOCC1 [Foretinib] (partner 0.25 µM)
How it was run: as §1

Cell Line	relative viability ([1]; first compound 0.0025 µM)	relative viability ([1]; first compound 0.007906 µM)	relative viability ([1]; first compound 0.025 µM)	relative viability ([1]; first compound 0.07906 µM)	relative viability ([1]; first compound 0.25 µM)	relative viability ([2]; first compound 0.02 µM)	relative viability ([2]; first compound 0.06325 µM)	relative viability ([2]; first compound 0.2 µM)	relative viability ([2]; first compound 0.6325 µM)	relative viability ([2]; first compound 2 µM)	relative viability ([3]; first compound 0.0025 µM)	relative viability ([3]; first compound 0.007906 µM)	relative viability ([3]; first compound 0.025 µM)	relative viability ([3]; first compound 0.07906 µM)	relative viability ([3]; first compound 0.25 µM)	relative viability ([4]; first compound 0.02 µM)	relative viability ([4]; first compound 0.06325 µM)	relative viability ([4]; first compound 0.2 µM)	relative viability ([4]; first compound 0.6325 µM)	relative viability ([4]; first compound 2 µM)
NCI-H1915	0.477	0.382	0.196	0.19	0.143	0.913	1	0.962	1.11	1.15	1.01	0.929	0.873	0.538	0.253	1.09	1.15	1.14	1.18	1.18
NCI-H3122	0.189	0.158	0.125	0.112	0.101	0.943	0.986	1	1.06	0.992	0.995	0.737	0.699	0.584	0.501	0.857	0.941	0.907	1.06	1.04
NCI-H1650	0.34	0.38	0.34	0.357	0.158	0.189	0.19	0.2	0.19	0.222	0.899	0.714	0.567	0.568	0.151	1.21	1.05	0.98	1.26	1.22
NCI-H1993	0.553	0.526	0.548	0.61	0.448	0.916	1.09	1.09	0.691	0.697	0.824	0.909	0.651	0.648	0.682	0.665	0.739	0.72	0.788	0.688
NCI-H2405	0.527	0.58	0.419	–	0.281	0.997	0.874	–	0.892	1	0.992	0.68	0.498	0.499	0.481	1.04	1.03	0.896	1.01	1.05
NCI-H661	0.429	0.404	0.377	0.311	0.348	0.775	0.735	0.691	0.727	0.878	0.43	0.451	0.448	0.341	0.421	1.11	0.965	1.04	1.05	1.04
